Holding throughout (experiment): isobutyraldehyde reduction kinetics (A340, initial rates)
Format in all cases: biochemical

Assay [1] addresses Achromobacter xylosoxidans SadB (SadB), SEQ ID NO: 26. The source says:
(§1) This example describes preparation of ADH-gene constructs for over-expression/purification and measurement of enzyme activities using a time-course assay. Horse-liver ADH (HLADH; A-6128) was purchased from Sigma. Achromobacter xylosoxidans SadB (SadB), Saccharomyces cerevisiae ADH6 (ScADH6) and ADH7 (ScADH7), Entamoeba histolytica ADH1 (EhADH1), Bos Taurus Aldehyde Reductase (BtARD), Beijerinckia indica subsp. Indica ATCC 9039 (BiADH), Clostridium beijerinckii ADH (CbADH), Rana perezi ADH8 (RpADH8), Rattus norvegicus ADH1 (RnADH1), Thermus sp. ATN1 ADH (TADH), Phenylobacterium zucineum HLK1 ADH (PzADH), Methylocella silvestris BL2 ADH (MsADH), Acinetobacter baumannii AYE ADH (AbADH), Geobacillus sp. WCH70 ADH (GbADH), Vanderwaltozyma polyspora DSM 70294 ADH (VpADH), Mucor circinelloides ADH (McADH), and Rhodococcus erythropolis PR4ADH (ReADH) were the candidates for which subclones were prepared for protein expression and purification.
(§2) As a routine practice, the crude extracts and purified proteins were assayed for butanol oxidation activity, in order to ensure that the recombinant proteins were active throughout the purification process. […] Alcohol oxidation activities were carried out in 50 mM sodium phosphate buffer at pH 8.8 and aldehyde reduction reactions were assayed in 190 mM potassium phosphate buffer at pH 7.0. Depending on the nature of reaction being carried out, the enzyme and cofactor stocks were diluted in the reaction buffers at the respective pHs. Either buffer or cell extract prepared from the proprietary E. coli strain (with no ADH plasmid) was used as the negative control for assays with purified protein and cell-free extracts, respectively.
(§3) Kinetic constants of the ADH enzymes were calculated and compared to identify those candidate ADH enzymes with the most desirable properties for the conversion of isobutyraldehyde to isobutanol in the last step of the engineered pathway for isobutanol production. The assays for determining the kinetic constants were carried out using initial rates from the assays described above. […] The concentration of a given enzyme was such that it was conducive for the measurement of initial velocities over a 1-min time course. For each enzyme, Michaelis-Menten plots were generated with a broad range of substrate concentrations. Rough estimates of KM were obtained, based on which the assays were redesigned so as to use substrate concentrations in the range 0.5 to 10 times the KM value, to be able to obtain the appropriate kinetic constants. […] Reactions with isobutanol substrate were performed at 30° C. in 50 mM Sodium phosphate buffer, pH 8.8, containing 7.5 mM NAD. The Enzyme kinetics module (Version 1.3) of SigmaPlot 11 (Systat Software, Inc.) was used to fit data to Michaelis-Menten equations and calculate the kinetic constants. The kcat/KM is derived from the individual numbers of kcat and KM and not an experimentally determined value.
(§4) For those enzymes marked with an asterisk in Table 7, at least 3 assays were performed with separate preparations of the enzyme. All other numbers are values from either one assay or are averages from 2 assays performed with the same enzyme sample.

Assay [2] has as its target T1, Saccharomyces cerevisiae ADH6 (ScADH6), SEQ ID NO: 22 (Saccharomyces cerevisiae, UniProt Q04894).
T1 sequence (Q04894 1-360): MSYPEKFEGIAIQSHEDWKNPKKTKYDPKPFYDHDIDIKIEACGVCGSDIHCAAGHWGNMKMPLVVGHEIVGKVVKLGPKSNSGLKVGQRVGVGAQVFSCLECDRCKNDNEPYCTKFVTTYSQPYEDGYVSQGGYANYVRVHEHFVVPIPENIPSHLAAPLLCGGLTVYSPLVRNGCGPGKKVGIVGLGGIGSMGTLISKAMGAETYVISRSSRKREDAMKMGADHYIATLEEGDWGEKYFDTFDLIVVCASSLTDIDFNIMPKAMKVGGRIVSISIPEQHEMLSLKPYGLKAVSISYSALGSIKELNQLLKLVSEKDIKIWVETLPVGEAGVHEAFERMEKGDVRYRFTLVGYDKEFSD
Particulars: relative to SadB.
Source text: as §1, §2, §3, §4

For assay [3], the target named is T2, Saccharomyces cerevisiae ADH7 (ScADH7), SEQ ID NO: 23 (Saccharomyces cerevisiae, UniProt P25377).
T2 sequence (P25377 1-361): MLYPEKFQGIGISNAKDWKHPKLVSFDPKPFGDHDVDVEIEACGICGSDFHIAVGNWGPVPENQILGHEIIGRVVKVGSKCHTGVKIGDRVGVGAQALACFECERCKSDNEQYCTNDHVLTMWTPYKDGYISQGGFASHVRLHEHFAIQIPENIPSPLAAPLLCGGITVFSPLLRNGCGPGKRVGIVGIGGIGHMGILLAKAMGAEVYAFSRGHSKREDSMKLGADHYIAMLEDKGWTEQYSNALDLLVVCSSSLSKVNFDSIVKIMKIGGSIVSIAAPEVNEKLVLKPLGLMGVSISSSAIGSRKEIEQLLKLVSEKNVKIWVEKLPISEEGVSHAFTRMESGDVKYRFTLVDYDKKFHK
Source text: as §1, §2, §3, §4

Assay [4] deals with T3, horse liver ADH (HLADH), SEQ ID NO: 21 (Equus caballus, UniProt P00327).
T3 construct: purchased Sigma A-6128
T3 sequence (P00327 whole entry): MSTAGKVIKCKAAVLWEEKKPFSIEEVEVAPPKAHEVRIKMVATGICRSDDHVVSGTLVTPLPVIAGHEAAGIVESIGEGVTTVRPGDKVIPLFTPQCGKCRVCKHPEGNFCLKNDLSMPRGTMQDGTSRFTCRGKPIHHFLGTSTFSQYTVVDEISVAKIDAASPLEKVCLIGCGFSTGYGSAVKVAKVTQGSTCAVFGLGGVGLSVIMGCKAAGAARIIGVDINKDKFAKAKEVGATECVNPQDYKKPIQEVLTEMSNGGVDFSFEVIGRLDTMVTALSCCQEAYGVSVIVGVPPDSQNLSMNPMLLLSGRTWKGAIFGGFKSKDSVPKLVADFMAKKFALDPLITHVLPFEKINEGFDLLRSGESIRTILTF
Particulars: relative to SadB.
Source text: as §1, §2, §3, §4

The record followed here is patent publication US8765433B2, “Alcohol dehydrogenases (ADH) useful for fermentive production of lower alkyl alcohols” (priority 2009, dated 2014).

Regarding `CC(C)CO` [isobutanol, 2-methylpropan-1-ol], the “KI as a percentage of the same parameter for SadB” value in assay [1] (reference (SadB itself)) came out at 100%; in assay [2], 650%; in assay [3] (relative to SadB) it was 49%; in assay [4], 1%. Besides, the Ki in assay [3] (read-out: KI (Isobutanol)) was determined as 88 mM.

As for `CC(C)C=O` [isobutyraldehyde], in assay [1] (30° C., pH 7.0, 200 μM NADH, read-out: KM (Isobutanal)), the Km is 1000 µM. Further, the turnover number (kcat) in assay [1] (isobutyraldehyde reduction, 30° C., pH 7.0, 200 μM NADH) stood at 109 s⁻¹. The “KM as a percentage of the same parameter for SadB” value was determined as 100% in assay [1] (reference (SadB itself)), 60% in assay [2], 30% in assay [3] (relative to SadB) and 10% in assay [4]. Moreover, the “kcat as a percentage of the same parameter for SadB” value stood at 100% in assay [1] (reference (SadB itself)), 43% in assay [2], 33% in assay [3] (relative to SadB) and 7% in assay [4]. Besides, the “kcat/KM as a percentage of the same parameter for SadB” value in assay [1] (reference (SadB itself)) worked out at 100%; in assay [2] it was 77%; in assay [3] (relative to SadB), 114%; in assay [4], 78%.
